Test [1] deals with T1, SARS-CoV-2 PLpro (nsp3 1564–1878) (Severe acute respiratory syndrome coronavirus 2, UniProt P0DTD1). The test is described as follows: biochemical. Further details: FRET-quenched peptide (Pro3) cleavage by PLpro, 10 min pre-incubation, slope over 20 min, normalised to no-compound control. The settings on record: low concentration screen, read-out: % of control remaining.
Test [2] has as its target T1, SARS-CoV-2 PLpro (nsp3 1564–1878). The test is described as follows: biochemical. Further details: FRET-quenched peptide (Pro3) cleavage by PLpro, 10 min pre-incubation, slope over 20 min, normalised to no-compound control. The conditions noted are these: high concentration screen, read-out: % of control remaining.

Molecules are shown by their SMILES. Read-outs that look alike come from different tables or passages of the source.

With `COc1ccc2c(c1OC)C(=O)O[C@@H]2[C@H]1c2c(cc3c(c2OC)OCO3)CCN1C` (racemic), in test [1] (Well no.=3446), the remaining activity at 1.25 µM stood at 92.3%. In test [2] (Well no.=3446), the remaining activity at 3.75 µM came out at 90.7%.

On to `CCCN1CCO[C@@H]2c3cc(O)ccc3OC[C@H]21` (racemic), for which the remaining activity at 1.25 µM in test [1] (Well no.=1505) was determined as 96%. In addition, the remaining activity at 3.75 µM in test [2] (Well no.=1505) was determined as 96.1%.

Turning to `CC(C)NCC(O)COc1ccc(COCCOC(C)C)cc1` (racemic), the remaining activity at 1.25 µM in test [1] (Well no.=6415) came to 99.2%. Further, the remaining activity at 3.75 µM in test [2] (Well no.=6415) was 93.2%.

With `C[C@@H]1O[C@H](C[N+](C)(C)C)C[C@H]1O` (racemic), the remaining activity at 1.25 µM in test [1] (Well no.=1037) was determined as 97.2%. The remaining activity at 3.75 µM in test [2] (Well no.=1037) was determined as 98.2%.

`CCCCCC(O)/C=C/C=C\CCCCCCCC(=O)O` (racemic): the remaining activity at 1.25 µM in test [1] (Well no.=4382) is 99.2%. In addition, the remaining activity at 3.75 µM in test [2] (Well no.=4382) is 96.6%.

For `CCN1CCCC1CNC(=O)c1cc(S(N)(=O)=O)ccc1OC` (racemic), in test [1] (Well no.=1174), the remaining activity at 1.25 µM came to 105%. Moreover, in test [2] (Well no.=1174), the remaining activity at 3.75 µM turned out to be 106%.

Turning to `C[C@H]1CC[C@@H]2[C@@H](C)[C@H]3[C@H](C[C@H]4[C@@H]5CC=C6C[C@@H](O[C@@H]7O[C@H](CO)[C@H](O)[C@H](O[C@@H]8O[C@H](CO)[C@@H](O)[C@H](O)[C@H]8O)[C@H]7O[C@H]7O[C@@H](C)[C@H](O)[C@@H](O)[C@H]7O)CC[C@]6(C)[C@H]5CC[C@]34C)N2C1` (racemic), in test [1] (Well no.=3465), the remaining activity at 1.25 µM was determined as 105%. In addition, the remaining activity at 3.75 µM in test [2] (Well no.=3465) is 105%.

Consider `CCCN1CCC[C@@H]2Cc3n[nH]cc3C[C@H]21` (racemic), for which the remaining activity at 1.25 µM in test [1] (Well no.=1461) worked out at 91%. The remaining activity at 3.75 µM in test [2] (Well no.=1461) worked out at 88.7%.

Take `O=C1CCC(N2C(=O)c3ccccc3C2=O)C(=O)N1` (racemic): in test [1] (Well no.=1282), the remaining activity at 1.25 µM was found to be 107%. Besides, the remaining activity at 3.75 µM in test [2] (Well no.=1282) is 105%.

As for `O=C1c2c(O)cc(O)cc2O[C@H](c2ccc(O)c(O)c2)[C@H]1O` (racemic), the remaining activity at 1.25 µM in test [1] (Well no.=1527) is 95.9%. Moreover, in test [2] (Well no.=1527), the remaining activity at 3.75 µM was 96.7%.

In the case of `CC(C)NCC(O)c1ccc(NS(C)(=O)=O)cc1` (racemic), the remaining activity at 1.25 µM in test [1] (Well no.=1212) was 105%. Also, the remaining activity at 3.75 µM in test [2] (Well no.=1212) worked out at 103%.

For `COc1cc(C(O)CN)ccc1O` (racemic), in test [1] (Well no.=1049), the remaining activity at 1.25 µM was 96.5%. Also, in test [2] (Well no.=1049), the remaining activity at 3.75 µM came out at 96.1%.

As for `c1cncc([C@@H]2CCCCN2)c1` (racemic), the remaining activity at 1.25 µM in test [1] (Well no.=3477) worked out at 102%. Moreover, the remaining activity at 3.75 µM in test [2] (Well no.=3477) came to 99.3%.

As to `C[N+](C)(C)CC(O)CC(=O)[O-]` (racemic), the remaining activity at 1.25 µM in test [1] (Well no.=3402) turned out to be 88.4%. In addition, the remaining activity at 3.75 µM in test [2] (Well no.=3402) is 86.6%.

With `CC(C)Cc1ccc(C(C)C(=O)O)cc1` (racemic), the remaining activity at 1.25 µM in test [1] (Well no.=1011) was found to be 100%. For the same compound, the remaining activity at 3.75 µM in test [2] (Well no.=1011) worked out at 99.6%.

Turning to `CC1=CC(=O)CC(C)(C)C1(O)/C=C/C(C)=C\C(=O)O` (racemic), the remaining activity at 1.25 µM in test [1] (Well no.=3152) was 101%. Besides, in test [2] (Well no.=3152), the remaining activity at 3.75 µM was 102%.

Regarding `CNCC(O)c1ccc(O)cc1` (racemic), in test [1] (Well no.=1356), the remaining activity at 1.25 µM is 102%. For the same compound, the remaining activity at 3.75 µM in test [2] (Well no.=1356) is 104%.

Consider `NCC(O)c1ccc(O)cc1` (racemic), for which, in test [1] (Well no.=1038), the remaining activity at 1.25 µM turned out to be 97.4%. The remaining activity at 3.75 µM in test [2] (Well no.=1038) is 95.7%.

With `C=CC(N)CCC(=O)O` (racemic), the remaining activity at 1.25 µM in test [1] (Well no.=1528) came out at 98.8%. In addition, the remaining activity at 3.75 µM in test [2] (Well no.=1528) worked out at 96.6%.

In the case of `CCCN(CCc1ccccc1)C1CCc2c(O)cccc2C1` (racemic), the remaining activity at 1.25 µM in test [1] (Well no.=1357) was 102%. The remaining activity at 3.75 µM in test [2] (Well no.=1357) was found to be 103%.

With `CCCCCC(O)/C=C/C=O` (racemic), in test [1] (Well no.=4337), the remaining activity at 1.25 µM stood at 104%. Further, in test [2] (Well no.=4337), the remaining activity at 3.75 µM was found to be 102%.

Take `CCCCC/C=C\C/C=C\C/C=C\C=C\C1CCCC(=O)O1` (racemic): the remaining activity at 1.25 µM in test [1] (Well no.=4277) was 105%. In addition, the remaining activity at 3.75 µM in test [2] (Well no.=4277) was 102%.

`OC1CCCCC1N1CCC(c2ccccc2)CC1` (racemic): the remaining activity at 1.25 µM in test [1] (Well no.=1290) turned out to be 101%. Moreover, in test [2] (Well no.=1290), the remaining activity at 3.75 µM was 97.9%.

As to `CCCCCCCCCCCCCC(=O)O[C@@H]1[C@@H](C)[C@@]2(O)[C@@H](C=C(CO)C[C@@]3(O)C(=O)C(C)=C[C@@H]23)[C@@H]2C(C)(C)[C@]12OC(C)=O` (racemic), the remaining activity at 1.25 µM in test [1] (Well no.=3080) turned out to be 98.8%. Further, the remaining activity at 3.75 µM in test [2] (Well no.=3080) turned out to be 98.9%.

Take `CCCCCCCN[C@H]1CCC[C@@H]1CCCCCCC(=O)O` (racemic): in test [1] (Well no.=4531), the remaining activity at 1.25 µM was found to be 95.3%. Also, the remaining activity at 3.75 µM in test [2] (Well no.=4531) came out at 98%.

As to `COC1=CC(=O)O[C@@H](/C=C/c2ccccc2)C1` (racemic), the remaining activity at 1.25 µM in test [1] (Well no.=3371) is 92.9%. Further, the remaining activity at 3.75 µM in test [2] (Well no.=3371) amounted to 95.8%.

For the compound `CCCCC[C@H](O)/C=C/[C@@H]1[C@@H](C/C=C\CCCC(=O)O)[C@H](O)C[C@H]1O` (racemic), the remaining activity at 1.25 µM in test [1] (Well no.=4479) was determined as 101%. Moreover, the remaining activity at 3.75 µM in test [2] (Well no.=4479) is 101%.

For `COc1ccc(CCN(C)CCCC(C#N)(c2cc(OC)c(OC)c(OC)c2)C(C)C)cc1OC` (racemic), the remaining activity at 1.25 µM in test [1] (Well no.=1026) is 94.4%. The remaining activity at 3.75 µM in test [2] (Well no.=1026) is 98.1%.

In the case of `CCCCC/C=C\C=C\C(O)CCCCCCCC(=O)O` (racemic), the remaining activity at 1.25 µM in test [1] (Well no.=4378) was determined as 103%. The remaining activity at 3.75 µM in test [2] (Well no.=4378) was 103%.

`N[C@H](C(=O)O)c1cc(O)no1` (racemic): the remaining activity at 1.25 µM in test [1] (Well no.=819) was found to be 98.4%. Besides, the remaining activity at 3.75 µM in test [2] (Well no.=819) is 98.7%.

Consider `O=C(O)CCCCC1CCSS1` (racemic), for which the remaining activity at 1.25 µM in test [1] (Well no.=1195) was 102%. Moreover, in test [2] (Well no.=1195), the remaining activity at 3.75 µM amounted to 101%.

As to `O=C(NC(NC(=S)Nc1ccc(F)c([N+](=O)[O-])c1)C(Cl)(Cl)Cl)C(c1ccccc1)c1ccccc1` (racemic), in test [1] (Well no.=2588), the remaining activity at 1.25 µM was 94.8%. Besides, the remaining activity at 3.75 µM in test [2] (Well no.=2588) worked out at 93.4%.

As for `CC1(NC(=O)CBr)CCC(C(C)(C)NCC(O)COc2cccc3[nH]ccc23)CC1` (racemic), in test [1] (Well no.=1215), the remaining activity at 1.25 µM came to 99.4%. The remaining activity at 3.75 µM in test [2] (Well no.=1215) is 102%.

As to `COc1ccc(CCN(C)CCCC(C#N)(c2ccc(OC)c(OC)c2)C(C)C)cc1OC` (racemic), in test [1] (Well no.=1336), the remaining activity at 1.25 µM was determined as 104%. The remaining activity at 3.75 µM in test [2] (Well no.=1336) was 101%.

In the case of `NC(Cc1cc(O)c(O)cc1O)C(=O)O` (racemic) [6-Hydroxy-DL-DOPA], the remaining activity at 1.25 µM in test [1] (Well no.=752) stood at 88.3%. Moreover, the remaining activity at 3.75 µM in test [2] (Well no.=752) came to 89.4%.

The values above are taken from PMC8286840, “Identifying SARS-CoV-2 antiviral compounds by screening for small molecule inhibitors of Nsp3 papain-like protease” (Biochemical Journal, 2021).
